The source of these data is patent US6964772B1, “Chitosan-xanthan based polyionic hydrogels for stabilization and controlled release of vitamins” (Kemestrie Inc., priority 1998, dated 2005).

The series can be described thus: Determination of the Vitamin C stability in the cream base at 45° C. It is filed as physicochemical. As to conditions: cream with 5-25 wt % Vitamin C, after 30 days at 45° C., protected from light. As for the experimental part: The method consists of introducing 20 to 30 mg of freeze-dried CHITOXAN™ loaded with Vitamin C in a 50 ml centrifuge tube together with 40 ml of the extraction solvent. The mixture is magnetically stirred for 60 minutes. The suspension formed is centrifuged (4000 rpm) and the supernatant is analysed. All operations are done in absence of light.
This determination requires the establishment of a calibration curve at a maximum absorption wavelength using a UV-vis spectrophotometer. A standard is prepared with the same solution (and solvent) initially used to introduce the Vitamin C within the CHITOXAN™. Experimentation has shown an absorption maximum at 243 nm for Vitamin C at 98% purity obtained from ALDRICH.
The calibration curve is constructed at 243 nm as follows. A solution of 1.3 mg/ml of Vitamin C in the solvent is prepared in a graduated cylinder. The solution is prepared just before analysis. By successive dilutions, the absorption versus concentration calibration curve (mg/ml) is thus measured.
The concentration of Vitamin C in the supernatant obtained via extraction is determined at 243 nm using the calibration curve. […]
10 g of the preparation obtained by inclusion of CHITOXAN™—Vit. […] Samples not immediately analysed were kept frozen at −4° C.
The aliquots were analysed with the method described earlier (always using the extraction solvent). […]

`O=C1O[C@H]([C@@H](O)CO)C(O)=C1O` [free Vitamin C, Vitamin C]: the “coloration of the cream” value is reported as “an orange coloration appeared” and the “degradation of Vitamin C” value is 98%.
